Assay results taken from patent US5484924A, “Imidazonaphthyridine derivatives” (Kyowa Hakko Kogyo Co., Ltd., priority 1991, dated 1996).

System: tracheae from guinea pigs
Test: passive Shultz-Dale reaction (broncho-dilative activity), relaxation of antigen-contracted tracheal strips
Parameters: species or system Male Hartley guinea pigs
Conditions: Cavia porcellus; concentration of 50% relaxation; passively sensitized guinea pig tracheal zig-zag strips, 37° C., antigen (egg white albumin) 1 μg/ml
Method: Effect on passive Shultz-Dale reaction (broncho-dilative activity)
Male Hartley guinea pigs weighing 350 to 500 g were passively sensitized by intraperitoneal injection of rabbit anti-OA serum prepared in advance by the method of Koda et al. [Folia Pharmacol., Japon 66, 237, (1970)]. After 24 hours, tracheae were removed from guinea pigs and used for experiment. The zig-zag strips of the tracheae were prepared by the method of Emmerson and Mackay [J. Pharm. Pharmacol., 31, 798, (1979)]. The strips were suspended in Krebs-Henseleit solution at 37° C. under aeration of a mixed gas of 95% oxygen and 5% carbon dioxide, and equilibrated for one hour. Then, antigen (egg white albumin) was introduced in the solution (final concentration; 1 μg/ml), and the contraction was measured by isotonic transducer (TD-112s, made by Nihon Kohden K. K., Japan) and recorded on a recorder (Type 3066, made by Yokogawa-Hokushin Denki, K. K. Japan). After the contraction curves reached a plateau, the test compounds were successively added in order to get cumulative concentration-relaxation curves. The concentration of 50% relaxation rate (IC50) was calculated from the regression line, which was obtained from the cumulative concentration-relaxation curves.

S=c1c2[nH]cnc2c2cccnc2n1-c1ccccc1 [Compound 1, 5-Phenyl-3H-imidazo[4,5-c][1,8]naphthyridin-4(5H)-thione]
IC50: 4.8 µM
